Test results from patent US10858366B2 (priority 2016, dated 2020).

What was measured:
[1] = biological target: truncated Influenza A/victoria/75 PA(1-209) (Influenza A virus (strain A/Victoria/3/1975 H3N2), UniProt P31343); assay: Endonuclease Inhibition Assay (PA FP Assay); format: binding; details: fluorescence polarization, fluorescein-labeled probe
Description: Endonuclease Inhibition Assay (PA FP Assay)
Compounds were dissolved and serially diluted in 100% DMSO then 0.5 μl was transferred to 384-well plates. 50 nM truncated Influenza A/victoria/75 PA(1-209) was prepared in assay buffer (20 mM Tris, pH=7.5, 10 mM MgCl2, 0.01% Tween 20, 100 mM NaCl and 1 mM DTT) and 20 ul was added to each well of assay plate with compounds, centrifuged for 1 min at 1000 rpm and incubated for 30 min at room temperature. 20 μl of 20 nM fluorescein-labeled probe [5-(4-(3-carboxy-3-oxopropanoyl)-4-(4-chlorobenzyl)piperidine-1-carbonyl)-2-(6-hydroxy-3-oxo-3H-xanthen-9-yl)benzoic acid] in assay buffer was then added, centrifuged for 1 min at 1000 rpm and incubated for 60 min at room temperature.
Fluorescence polarization was measured on Perkin Elmer Envision plate reader with excitation at 480 nm and emission at 535 nm and reported in millipolarization units (mP). IC50 values were determined relative to wells containing 125 uM of a compound known to bind to the active site of PA and uninhibited wells containing 1.25% DMSO.

[2] = biological target: RNP_CAL (PB2, PB1, PA, NP, influenza A Luciferase reporter in 293T cells) (Influenza A virus (strain swl A/California/04/2009 H1N1), UniProt C3W5S0); assay: cell-based

| Structure (SMILES) | IC50 [1] | EC50 [2] |
| --- | --- | --- |
| O=c1ccn2c(c1O)-c1ncc(-c3cn[nH]c3)n1C[C@@H]2C(c1ccccc1)c1ccccc1 [Example 52, (S)-6-benzhydryl-11-hydroxy-3-(1H-pyrazol-4-yl)-5,6-dihydro-10H-imidazo[1,2-a]pyrido[2,1-c]pyrazin-10-one] | 8 nM | 8300 nM |
| O=c1ccn2c(c1O)-c1ncc(-c3ccccc3)n1C[C@@H]2C(c1ccccc1)c1ccccc1 [Example 53, (S)-6-benzhydryl-11-hydroxy-3-phenyl-5H-imidazo [1,2-a] pyrido[2,1-c]pyrazin-10(6H)-one] | 60 nM | 3000 nM |
| COCc1cnc2n1C[C@H](C(c1ccccc1)c1ccccc1)n1ccc(=O)c(O)c1-2 [Example 56, (S)-6-benzhydryl-11-hydroxy-3-(methoxymethyl)-5H-imidazo [1,2-a]pyrido[2,1-c]pyrazin-10(6H)-one] | 100 nM | 92 nM |
| O=c1ccn2c(c1O)-c1ncc(C(F)F)n1C[C@@H]2C(c1ccccc1)c1ccccc1 [Example 57, (S)-6-benzhydryl-3-(difluoromethyl)-11-hydroxy-5H-imidazo[1,2-a]pyrido[2,1-c]pyrazin-10(6H)-one] | 40 nM | 180 nM |
| CC1(C)N(C(c2ccccc2)c2ccccc2)n2ccc(=O)c(O)c2-c2nccn21 [Example 75, 6-benzhydryl-11-hydroxy-5,5-dimethyl-5,6-dihydro-10H-imidazo[1,2-d]pyrido[2,1-f][1,2,4]triazin-10-one] | 100 nM | 300 nM |
| CCC1N(C(c2ccccc2)c2ccccc2)n2ccc(=O)c(O)c2-c2nccn21 (stereo not drawn) [Example 78, 6-benzhydryl-5-ethyl-11-hydroxy-5,6-dihydro-10H-imidazo[1,2-d]pyrido[2,1-f][1,2,4]triazin-10-one] | 40 nM | 180 nM |
